Where a name gives a salt, the structure may show the parent alone.
What was measured:
Pancreatic Lipase = molecular target: T1, Pancreatic Lipase (Sus scrofa, UniProt P00591); assay: Pancreatic lipase inhibition assay (p-nitro phenol palmitate substrate, 96-well); type: biochemical; conditions: for IC50: dose range 6.25 μM-200 μM, interpolated by linear regression; for inhibition at 100 µM / inhibition at 200 µM: pancreatic lipase, 37° C., OD 405 nm; for inhibition at 100 µM: compound 100 μM; for inhibition at 200 µM: compound 200 μM
T1 construct: purchased Sigma L-3126
T1 sequence (P00591 1-450): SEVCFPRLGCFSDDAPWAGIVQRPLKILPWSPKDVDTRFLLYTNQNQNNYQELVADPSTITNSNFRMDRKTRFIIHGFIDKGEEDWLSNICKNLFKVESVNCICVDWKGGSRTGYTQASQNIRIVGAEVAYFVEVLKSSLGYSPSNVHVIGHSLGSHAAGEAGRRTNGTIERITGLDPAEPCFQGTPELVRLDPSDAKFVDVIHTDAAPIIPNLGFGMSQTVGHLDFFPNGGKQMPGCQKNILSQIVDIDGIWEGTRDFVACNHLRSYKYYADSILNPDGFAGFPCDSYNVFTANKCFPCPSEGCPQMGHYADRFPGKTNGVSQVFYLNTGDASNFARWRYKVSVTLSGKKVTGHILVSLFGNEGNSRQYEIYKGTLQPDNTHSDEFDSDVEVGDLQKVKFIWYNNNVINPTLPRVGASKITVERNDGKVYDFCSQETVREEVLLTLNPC
Experimental: (§1) Preparation of test samples: Structures #2-#19 were dissolved in 1 mL DMSO to obtain a 10 mM stock solution, and were vortexed to dissolution and stored at 4° C. The various concentration of working samples were prepared in 0.2 M phosphate buffer, pH-8.0. This sample was used as test sample for all further assays.
Lipase assay: Lipase assay was performed by method described by Winkler and Stuckmann, 1979, with modification. (Winkler, U. K. & Stuckmann, M. Glycogen, hyaluronate, and some other polysaccharides greatly enhance the formation of exolipase by Serratia marcescens. J. Bacteriol. 138: 663-670 (1979)) Assay was designed, using a 96-well format. The substrate used in this assay was p-nitro phenol palmitate (Sigma, Cat No-N-2752). 4.5 mg of p-nitro phenol palmitate was dissolved in 200 μl of N,N-dimethyl formamide (Sigma, Cat No, D-4551) and volume made up to 10 ml with 0.1 M pH 8.0 phosphate buffer. Pancreatic Lipase (Sigma, Cat No. L-3126) sample was prepared by dissolving the enzyme in 0.1M phosphate buffer at a concentration of 5 mg/ml. The reaction mixture consisted of 150 μl substrate solution; 40 μl phosphate buffer (pH 8.0, 0.2 M) and 10 μl lipase solution. The reaction mixture was incubated at 37° C. and optical density was measured at 405 nm after incubation. Enzyme activity was presented in the form of international unit (IU).
Lipase activity: One enzyme unit of lipase is defined as that quantity releasing 1 nm of free phenol from the substrate (p-nitro phenol palmitate) per min per ml under the standard assay condition (Winkler and Stuckmann, 1979; Yadav R P, Saxena R K, Gupta R. Davidson W S., Purification and characterization of a region-specific lipase from Aspergillus terreus. Biotechnol. Appl. Biochem. (1998) 28, (243-249)). It is derived from standard graph of p-nitro phenol (Sigma, 104-8).
(§2) Lipase inhibition assay: Enzyme inhibition assay was performed in a dose dependent manner. The concentration of the synthetic analogs checked were 100 μM & 200 μM. The assay was similar to assay described above except 40 μl of test sample was used instead of phosphate buffer in control. Optical density was measured at 0 hr and following incubation at 37° C.
Enzyme Inhibition: Enzyme inhibition was presented in the term of relative activity and percentage inhibition simply on the basis of change in international unit (IU).
as §1, with “Synthetic analogues” for “Structures #2-#19”, “ml” for “mL”, “solution. The samples” for “solution, and”, “O.2” for “0.2”
as §2, with “6.25 μM-200” for “100 μM & 200”, “C. The enzyme activity was measured in terms of international unit (IU).” for “C.”
Lipase activity: One enzyme unit of lipase is defined as that quantity releasing 1 nm of free phenol from the substrate (p-nitro phenol palmitate)/min per ml under standard assay conditions. It is derived from standard graph of p-nitro phenol (Sigma, 104-8)
Percent Inhibition: Enzyme inhibition was presented in the term of % inhibition simply on the basis of change in international unit (IU).
The value of IC50 was derived from linear regression. The value derived is based on interpolated data.

| melting point [°C] | IC50 (Pancreatic Lipase) [µM] | inhibition at 100 µM (Pancreatic Lipase) [%] | inhibition at 200 µM (Pancreatic Lipase) [%] | Compound |
| --- | --- | --- | --- | --- |
| 102.8 to 104.6 |  |  |  | CCCCCCCCCCCC1=C(OC(=O)c2cccc(Cl)c2)C(=O)C=C(OC(=O)c2cccc(Cl)c2)C1=O (as salt: Na) [Structure #7, 2,5-bis-(3-chlorophenylcarbonyloxy)-3-undecyl-1,4-benzoquinone] |
| 56.2 to 57.8 |  |  |  | CCCCCCCCCCCC1=C(OC(=O)c2ccccc2Cl)C(=O)C=C(OC(=O)c2ccccc2Cl)C1=O (as salt: Na) [Structure #8, 2,5-bis-(2-chlorophenylcarbonyloxy)-3-undecyl-1,4-benzoquinone] |
| 110.2 to 112 |  |  |  | CCCCCCCCCCCC1=C(OC(=O)c2ccc(Cl)cc2)C(=O)C=C(OC(=O)c2ccc(Cl)cc2)C1=O (as salt: Na) [Structure #9, 2,5-bis-(4-chlorophenylcarbonyloxy)-3-undecyl-1,4-benzoquinone] |
| 94.8 to 96 |  |  |  | CCCCCCCCCCCC1=C(OC(=O)c2ccc(C)cc2)C(=O)C=C(OC(=O)c2ccc(C)cc2)C1=O (as salt: Na) [Structure #12, 2,5-bis-(4-methylphenylcarbonyloxy)-3-undecyl-1,4-benzoquinone] |
| 80.4 to 81.7 |  |  |  | CCCCCCCCCCCC1=C(OC(=O)c2cccc(C)c2)C(=O)C=C(OC(=O)c2cccc(C)c2)C1=O (as salt: Na) [Structure #13, 2,5-bis-(3-methylphenylcarbonyloxy)-3-undecyl-1,4-benzoquinone] |
| 72.2 to 73.8 |  |  |  | CCCCCCCCCCCC1=C(OC(=O)c2ccccc2[N+](=O)[O-])C(=O)C=C(OC(=O)c2ccccc2[N+](=O)[O-])C1=O (as salt: Na) [Structure #14, 2,5-bis-(2-nitrophenylcarbonyloxy)-3-undecyl-1,4-benzoquinone] |
| 98.2 to 99.6 |  |  |  | CCCCCCCCCCCC1=C(OC(=O)c2ccccc2)C(=O)C=C(OC(=O)c2ccccc2)C1=O (as salt: Na) [Structure #15, 2,5-bis-(phenylcarbonyloxy)-3-undecyl-1,4-benzoquinone] |
| 77.1 to 78.6 |  |  |  | CCCCCCCCCCCC1=C(OC(=O)c2cccc(OC)c2)C(=O)C=C(OC(=O)c2cccc(OC)c2)C1=O (as salt: Na) [Structure #17, 2,5-bis-(3-methoxyphenylcarbonyloxy)-3-undecyl-1,4-benzoquinone] |
|  | < 6.25 | 99.5 | 99.2 | CCCCCCCCCCCC1=C(OC(=O)c2ccc(C(C)(C)C)cc2)C(=O)C=C(OC(=O)c2ccc(C(C)(C)C)cc2)C1=O [Structure #3, 2,5-bis-(4-tert-butylphenylcarbonyloxy)-3-undecyl-1,4-benzoquinone] |
|  | 11 | 100 | 100 | CCCCCCCCCCCC1=C(OC(=O)c2ccccc2Br)C(=O)C=C(OC(=O)c2ccccc2Br)C1=O [Structure #5, 2,5-bis-(2-bromophenylcarbonyloxy)-3-undecyl-1,4-benzoquinone] |
|  | 13.5 | 100 | 100 | CCCCCCCCCCCC1=C(OC(=O)c2cccc(Br)c2)C(=O)C=C(OC(=O)c2cccc(Br)c2)C1=O [Structure #6, 2,5-bis-(3-bromophenylcarbonyloxy)-3-undecyl-1,4-benzoquinone] |
|  | 16.7 | 100 | 100 | CCCCCCCCCCCC1=C(OC(=O)c2cccc(Cl)c2)C(=O)C=C(OC(=O)c2cccc(Cl)c2)C1=O [Structure #7, 2,5-bis-(3-chlorophenylcarbonyloxy)-3-undecyl-1,4-benzoquinone] |
|  | 20.6 | 100 | 100 | CCCCCCCCCCCC1=C(OC(=O)c2ccccc2Cl)C(=O)C=C(OC(=O)c2ccccc2Cl)C1=O [Structure #8, 2,5-bis-(2-chlorophenylcarbonyloxy)-3-undecyl-1,4-benzoquinone] |
|  | 22.8 | 98.4 | 100 | CCCCCCCCCCCC1=C(OC(=O)c2ccc(Cl)cc2)C(=O)C=C(OC(=O)c2ccc(Cl)cc2)C1=O [Structure #9, 2,5-bis-(4-chlorophenylcarbonyloxy)-3-undecyl-1,4-benzoquinone] |
|  | 23.7 | 87.5 | 97 | CCCCCCCCCCCC1=C(OC(=O)c2ccc(Br)cc2)C(=O)C=C(OC(=O)c2ccc(Br)cc2)C1=O [Structure #10, 2,5-bis-(4-bromophenylcarbonyloxy)-3-undecyl-1,4-benzoquinone] |
|  | 41.3 | 88.5 | 99.1 | CCCCCCCCCCCC1=C(OC(=O)c2ccc(C)cc2)C(=O)C=C(OC(=O)c2ccc(C)cc2)C1=O [Structure #12, 2,5-bis-(4-methylphenylcarbonyloxy)-3-undecyl-1,4-benzoquinone] |
|  | 44.7 | 100 | 100 | CCCCCCCCCCCC1=C(OC(=O)c2cccc(C)c2)C(=O)C=C(OC(=O)c2cccc(C)c2)C1=O [Structure #13, 2,5-bis-(3-methylphenylcarbonyloxy)-3-undecyl-1,4-benzoquinone] |
|  | 45.3 | 65.9 | 61.3 | CCCCCCCCCCCC1=C(OC(=O)c2ccccc2[N+](=O)[O-])C(=O)C=C(OC(=O)c2ccccc2[N+](=O)[O-])C1=O [Structure #14, 2,5-bis-(2-nitrophenylcarbonyloxy)-3-undecyl-1,4-benzoquinone] |
|  | 55.6 | 100 | 100 | CCCCCCCCCCCC1=C(OC(=O)c2ccccc2)C(=O)C=C(OC(=O)c2ccccc2)C1=O [Structure #15, 2,5-bis-(phenylcarbonyloxy)-3-undecyl-1,4-benzoquinone] |
|  | 72.8 | 89.5 | 100 | CCCCCCCCCCCC1=C(OC(=O)c2ccc(F)cc2)C(=O)C=C(OC(=O)c2ccc(F)cc2)C1=O [Structure #16, 2,5-bis-(4-fluorophenylcarbonyloxy)-3-undecyl-1,4-benzoquinone] |
|  | 81.9 | 78.3 | 96.5 | CCCCCCCCCCCC1=C(OC(=O)c2cccc(OC)c2)C(=O)C=C(OC(=O)c2cccc(OC)c2)C1=O [Structure #17, 2,5-bis-(3-methoxyphenylcarbonyloxy)-3-undecyl-1,4-benzoquinone] |
|  | 94.2 | 55.6 | 94.1 | CCCCCCCCCCCC1=C(OC(=O)c2ccc(OC)cc2)C(=O)C=C(OC(=O)c2ccc(OC)cc2)C1=O [Structure #18, 2,5-bis-(4-methoxyphenylcarbonyloxy)-3-undecyl-1,4-benzoquinone] |
|  | 129 | 29.2 | 100 | CCCCCCCCCCCC1=C(OC(=O)c2ccccc2I)C(=O)C=C(OC(=O)c2ccccc2I)C1=O [Structure #19, 2,5-bis-(2-iodophenylcarbonyloxy)-3-undecyl-1,4-benzoquinone] |
|  |  | 67.9 | 69.5 | CCCCCCCCCCCC1=C(O)C(=O)C=C(O)C1=O [Structure #20, 2,5-Dihydroxy-3-undecyl-p-benzoquinone, reference compound] |
